In brackets after ≈: the same amount, converted by molar mass. Where two headings read alike, the source gives them in different places.
Legend:
Cutibacterium acnes = experiment: Expanded panel broth microdilution MIC; assay type: cell-based
[1] = tested on: Staphylococcus lugdunensis; experiment: Expanded panel broth microdilution MIC; assay type: cell-based
Streptococcus pneumoniae = experiment: Expanded panel broth microdilution MIC/MBC; assay type: cell-based
Clostridium. perfringens = experiment: microbe, parasite or virus in culture; assay type: cell-based
Clostridioides difficile = experiment: Expanded panel broth microdilution MIC; assay type: cell-based
[2] = tested on: MRSA ATCC BAA 1556 (USA300); experiment: In-house broth microdilution MIC screening; assay type: cell-based, Staphylococcus aureus; details: Staphylococcus aureus, read-out: MIC Value, MRSA ATCC BAA 1556
Enterococcus faecium = experiment: Expanded panel broth microdilution MIC/MBC; assay type: cell-based; details: for MIC: Enterococcus faecium
[3] = Single-dose nebulized nose-only inhalation PK in healthy rats; assay type: in vivo, rat
Method: Rats were acclimated in the study facility for approximately 1 week prior to study start. Ten or eleven rats per cohort were loaded into the chamber at the time of dosing. […] An additional airflow set to 6 liters/min was admixed with the nebulizer output to further direct the test articles to the animals. […] The remaining port on the chamber was fit with an aerosol sampling filter for dose determination over a 5 min sampling period. The average dose delivered to the nose of each animal was calculated using an algorithm that was previously described ([49]). […] Animals were euthanized for collection of whole lungs and plasma at time points ranging from immediate postdose (IPD; approximately 30 min after dosing for nebulization) to 168 h postdose (7 days). Drugs were extracted from tissues using customized protein precipitation methods with an appropriate internal standard for each compound and transferred for analysis by LC-MS/MS (Sciex API4500 or API6500+ mass spectrometer [Sciex, Framingham, MA]). GraphPad Prism (La Jolla, CA) was used for statistical analyses and data plotting. […] The data were applied to a noncompartmental analysis after extravascular dosing input and fit to a linear up/log down model. Statistical analysis of in vitro intracellular and biofilm activity was based on a two-way ANOVA with a Bonferroni post test. In vivo statistical analysis was based on the Kolmogorov-Smirnov test.

[4] = tested on: Staphylococcus epidermidis; experiment: Expanded panel broth microdilution MIC/MBC; assay type: cell-based; details: for MIC: Staphylococcus epidermidis
Streptococcus mitis = experiment: Expanded panel broth microdilution MIC/MBC; assay type: cell-based; details: for MIC: Streptococcus mitis
[5] = single nebulized nose-only inhaled dose, healthy rats

## CCCCCCCCCCNCCN[C@@]1(C)C[C@H](O[C@H]2[C@H](Oc3c4cc5cc3Oc3ccc(cc3Cl)[C@@H](O)[C@@H](NC(=O)[C@@H](CC(C)C)NC)C(=O)N[C@@H](CC(N)=O)C(=O)N[C@H]5C(=O)N[C@H]3C(=O)N[C@H](C(=O)N[C@H](C(=O)O)c5cc(O)c(CNCP(=O)(O)O)c(O)c5-c5cc3ccc5O)[C@H](O)c3ccc(c(Cl)c3)O4)O[C@H](CO)[C@@H](O)[C@@H]2O)O[C@@H](C)[C@H]1O [Telavancin, telavancin]
Cutibacterium acnes; ATCC6919
  MIC: 0.03 µg/mL (≈ 0.0171 µM)
Cutibacterium acnes; ATCC11827
  MIC: 0.015 µg/mL (≈ 0.00854 µM)
Cutibacterium acnes; read-out: MIC (median)
  MIC: 0.02 µg/mL (≈ 0.0114 µM)
[1]; S. lugdunensis, 1 isolate
  MIC: 0.06 µg/mL (≈ 0.0342 µM)
[1]; Staphylococcus lugdunensis
  MIC: 0.06 µg/mL (≈ 0.0342 µM)
Streptococcus pneumoniae; S. pneumoniae PISP, MBC on one organism
  MIC:MBC: 1
Streptococcus pneumoniae; S. pneumoniae PRSP, 1 isolate
  MIC: 0.03 µg/mL (≈ 0.0171 µM)
Streptococcus pneumoniae; Streptococcus pneumoniae
  MIC: 0.015 µg/mL (≈ 0.00854 µM)
Streptococcus pneumoniae; Streptococcus pneumoniae, ATCC49619
  MIC: 0.03 µg/mL (≈ 0.0171 µM)
Streptococcus pneumoniae; Streptococcus pneumoniae, PRSP
  MIC: 0.03 µg/mL (≈ 0.0171 µM)
Streptococcus pneumoniae; Streptococcus pneumoniae, read-out: MIC (median)
  MIC: 0.02 µg/mL (≈ 0.0114 µM)
Clostridium. perfringens
  MIC: 0.015 µg/mL (≈ 0.00854 µM)
Clostridium. perfringens; ATCC13124, read-out: MIC
  MIC: 0.015 µg/mL (≈ 0.00854 µM)
Clostridioides difficile; ATCCBAA1805, C. difficile ATCC BAA-1805, ribo 027
  MIC: 0.12 µg/mL (≈ 0.0684 µM)
Clostridioides difficile; ATCCBAA1870, C. difficile ATCC BAA-1870, NAP1;ribo 027
  MIC: 0.12 µg/mL (≈ 0.0684 µM)
Clostridioides difficile; C. difficile ATTC 700057, toxAB-
  MIC: 0.12 µg/mL (≈ 0.0684 µM)
Clostridioides difficile; C. difficile NAP1;ribo 027, 1 isolate
  MIC: 0.12 µg/mL (≈ 0.0684 µM)
Clostridioides difficile; C. difficile ribo 027, 1 isolate
  MIC: 0.12 µg/mL (≈ 0.0684 µM)
Clostridioides difficile; C. difficile toxAB-, 1 isolate
  MIC: 0.12 µg/mL (≈ 0.0684 µM)
[2]
  MIC: 0.063 µg/mL (≈ 0.0359 µM)
Enterococcus faecium; E. faecium VanA VRE
  MIC:MBC: >4
Enterococcus faecium; E. faecium VanB VRE
  MIC:MBC: >8
Enterococcus faecium; E. faecium MMX 4204, VSE
  MIC: 0.06 µg/mL (≈ 0.0342 µM)
Enterococcus faecium; E. faecium VSE, 1 isolate
  MIC: 0.06 µg/mL (≈ 0.0342 µM)
Enterococcus faecium; VRE, E. faecium MMX 173, VanB VRE
  MIC: 0.06 µg/mL (≈ 0.0342 µM)
Enterococcus faecium; VRE, E. faecium MMX 851, VanA VRE
  MIC: 2 µg/mL (≈ 1.14 µM)
Enterococcus faecium; VRE, E. faecium VanA VRE, 1 isolate
  MIC: 2 µg/mL (≈ 1.14 µM)
Enterococcus faecium; VRE, E. faecium VanB VRE, 1 isolate
  MIC: 0.06 µg/mL (≈ 0.0342 µM)
[3]; male, Sprague Dawley, rat, in vivo, inhaled or intranasal, single nebulized nose-only inhaled dose, healthy rats, noncompartmental analysis, read-out: Lung t1/2 (converted)
  half-life: 21.1 days
[3]; relative to IPD level, rat lung
  Drug lung level at 120 h: 81%
[3]; [5]
  Lung AUC0-∞: 3877 µg·h/g
  Lung Cmax: 12 µg/g
  Plasma Cmax: BLQ
[4]; S. epidermidis MRSE, MBC on one organism
  MIC:MBC: 1
[4]; ATCC49134, S. epidermidis ATCC 49134, MSSE
  MIC: 0.12 µg/mL (≈ 0.0684 µM)
[4]; MRSE, S. epidermidis MMX 762, MRSE
  MIC: 0.12 µg/mL (≈ 0.0684 µM)
[4]; MRSE, S. epidermidis MMX 5145, MRSE
  MIC: 0.03 µg/mL (≈ 0.0171 µM)
[4]; MRSE, read-out: MIC (median), S. epidermidis MRSE, 2 isolates
  MIC: 0.12 µg/mL (≈ 0.0684 µM)
[4]; S. epidermidis MSSE, 1 isolate
  MIC: 0.12 µg/mL (≈ 0.0684 µM)
Streptococcus mitis; S. mitis MGS, MBC on one organism
  MIC:MBC: 1
Streptococcus mitis
  MIC: 0.03 µg/mL (≈ 0.0171 µM)
Streptococcus mitis; ATCC49456
  MIC: 0.06 µg/mL (≈ 0.0342 µM)
Streptococcus mitis; read-out: MIC (median)
  MIC: 0.05 µg/mL (≈ 0.0285 µM)

Reference: PMC8373216, “Development and Preclinical Evaluation of New Inhaled Lipoglycopeptides for the Treatment of Persistent Pulmonary Methicillin-Resistant Staphylococcus aureus Infections” (Antimicrobial Agents and Chemotherapy, 2021)
